Data from patent publication US6974871B2, “Dequalinium analogs” (priority 2000, dated 2005).
Several values for one entry are separate records, joined by “and”; a condition that tells them apart may be missing. Equal entries are not always repeated. One block for each compound: values may come before it.

Legend:
Recombinant human PKCα = molecular target: T1, Recombinant human PKCα (Homo sapiens, UniProt P17252); assay: Assay of PKCα catalytic activity in vitro; format: biochemical; conditions: for IC50: reversible binding conditions, average of two or more independent experiments (± s.d.), read-out: IC50 (analogue concentration producing 50% inhibition of PKCα activity); for fold stronger inhibitory potency compared with C6-DECA (1a): IC50 ratio versus 1a; for fold stronger inhibitory potency than 1c: IC50 ratio versus 1c (C10-DECA)
T1 construct: purchased PanVera Corp., Madison, Wis
Procedure: Assay of PKCα Catalytic Activity In Vitro
(§1) Recombinant human PKCα (>95% pure) (PanVera Corp., Madison, Wis.) was used for testing DECA analogues in vitro. Total PKCα catalytic activity (36 ng protein) and the indicated concentration of DECA analogue was measured in triplicate in the presence of activating cofactors (10 μg phosphatidylserine, 0.5 mM Ca^2+) by the transfer of ^32P from [γ-^32P]-ATP to the modified pseudosubstrate peptide (RFARKGSLRQKNV), as described elsewhere^1. For assay of partially purified B16 F10 cell lysates (25 μg/assay), PKC activity was taken as the difference in phosphotransferase activity measured in triplicate in the presence and absence of activating cofactors (10 μg phosphatidylserine, 0.5 mM Ca^2+) as previously described^2.

[1] = molecular target: pp60src tyrosine protein kinase (Homo sapiens, UniProt P12931); assay: Inhibition of homologous protein kinase pp60src; format: biochemical; conditions: micromolar concentrations
Sequence of pp60src tyrosine protein kinase (P12931 whole entry): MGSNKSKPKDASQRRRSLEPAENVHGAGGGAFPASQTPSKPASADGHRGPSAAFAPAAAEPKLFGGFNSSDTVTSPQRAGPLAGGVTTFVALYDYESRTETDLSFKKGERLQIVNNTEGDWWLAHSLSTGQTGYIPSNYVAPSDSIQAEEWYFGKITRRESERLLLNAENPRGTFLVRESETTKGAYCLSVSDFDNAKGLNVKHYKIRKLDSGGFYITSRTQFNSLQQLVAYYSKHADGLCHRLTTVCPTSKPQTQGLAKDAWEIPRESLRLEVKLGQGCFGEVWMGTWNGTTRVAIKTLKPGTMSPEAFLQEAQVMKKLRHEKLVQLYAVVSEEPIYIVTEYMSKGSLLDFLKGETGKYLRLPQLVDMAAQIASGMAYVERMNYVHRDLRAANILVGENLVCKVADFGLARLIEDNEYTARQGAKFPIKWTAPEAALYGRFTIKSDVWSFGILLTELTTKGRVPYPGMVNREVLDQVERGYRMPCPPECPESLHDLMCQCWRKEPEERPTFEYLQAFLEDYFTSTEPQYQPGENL

[2] = molecular target: cAMP-dependent protein kinase (PKA) (Homo sapiens, UniProt P17612); assay: Inhibition of homologous protein kinase PKA; format: biochemical; conditions: micromolar concentrations
[3] = molecular target: protein kinase C (PKC) isoforms (e.g., α, β1); conditions: several isoforms (e.g., α, β1); read-out: IC50 for PKC isoforms in vitro; cited from earlier work
[4] = system: calmodulin-dependent myosin light chain kinase; assay: Inhibition of homologous protein kinase MLCK; format: biochemical; conditions: micromolar concentrations
intracellular PKCα = molecular target: T2, intracellular PKCα (Mus musculus, UniProt P20444); assay: Photoinduced inactivation of intracellular PKC activity in melanoma cells (DECA analogue plus longwave UV); format: cell-based, murine; conditions: B16 F10 cells; for inhibition at 0.25 µM: 250 nM, 1 h, plus UV irradiation 5 min
T2 construct: endogenous in cells; host or cells: murine melanoma B16 F10 cells
Procedure: as §1
Inactivation of PKCα in Murine Melanoma Cells with Ultraviolet Radiation and DECA Analogues
Murine melanoma B16 F10 cells were cultured in 15 cm^2 dishes to 75-80% confluence in RPMI medium containing 10% fetal bovine serum, 1% penicillin/streptomycin, and 0.125 μg/ml fungizone. Prior to drug application, cells were washed twice with phosphate buffered saline (PBS) and were restored in serum-free medium containing either DMSO (0.1% v/v) or 250 nM C12-, C14-, or C16-DECA analogue. Monolayers of cells were treated with or without the indicated DECA analogue for 1 h and irradiated for 5-min (1200 μW/cm^2) with a UV lamp (American Ultraviolet Co., Murray Hill, N.J.). Following this treatment, the medium was removed and the cells were washed twice with PBS. Preparation of cell lysates was followed by partial purification by DEAE-Sephacel chromatography, as previously described^2.
(§2) A confluent monolayer of cells was washed twice with PBS and the indicated concentration of DECA analogue was added to the cells in serum-free medium. Cells were treated with or without the drug for 1 h at 37° C., 5% CO2, followed by washing with PBS. In PBS and with the lids off, cells were irradiated with longwave UV light for 5-min (1200 μW/cm^2). […]

[5] = system: murine melanoma B16 F10 cells; assay: Cell migration in transwell (Boyden chamber); format: cell-based; conditions: for inhibition of cell migration: 250 nM plus UV 5 min, initial 3 h post-treatment, Boyden chamber
Procedure: A 12-mm Costar transwell (Boyden chamber) having a 12-μm pore size was used to measure cell movement across a porous polycarbonate membrane. The bottom surface was coated with 35 μg Matrigel for 1 h at 37° C., 5% CO2. Cells were seeded into the upper chamber of the transwell at 10^5 cells/well and incubated at 37° C., 5% CO2. Following incubation for 3 h, the upper chamber was carefully wiped with a cotton swab in order to remove cells that remained on the upper membrane surface. Those cells that had migrated to the lower membrane surface were fixed and stained by the H+E Method (Fisher Diagnostics Leukostat). By use of a Nikon Diaphot-TMD inverted microscope at 400× magnification, eight fields of adherent cells were randomly counted in each well and numerically averaged. Each condition was conducted in triplicate and statistical significance was determined by ANOVA using SigmaStat software.
Inhibition of cell migration by 250 nM DECA analogues (C10-(control), C12-, and C14-DECA) was analyzed during the initial 3 h post-treatment by the use of Boyden chambers. Cells that had been treated with a DECA analogue plus UV were applied to the upper surface of the membrane whereupon they moved chemotactically through the membrane, and adhered to Matrigel, which had been coated onto the under surface of the membrane. Following the initial 3 h, the number of cells migrating to this lower surface was measured.
as §2, with “μW/cm^2). Irradiation was carried out with a longwave UV lamp (American Ultraviolet Co., Murray Hill, N.J.) while the plate of cells were subjected to gentle shaking at room temperature. Following this treatment, the medium was removed and the cells were washed twice with PBS.” for “μW/cm^2).”

[6] = system: murine melanoma B16 F10 cells; assay: Time-lapse cell motility (scratch wound) assay; format: cell-based; conditions: 250 nM plus UV 5 min
Procedure: To measure cell motility by digital image capture, an Olympus IMT-2 inverted phase contrast microscope (Olympus Microscopes, UK), fitted with a Fujitsu TC2-336P CCD camera (EOS Electronics AV Ltd, Barry, Wales) and surrounded by a perspex temperature-regulated jacket that was adjusted to 37° C. Cells were plated onto 3-cm^2 petri dishes such that a densely confluent monolayer was achieved within 24 or 48 h. Following treatment of cells with C10-DECA and UV, a ‘scratch wound’ was created by drawing a sterile micro-pipette tip along the monolayer using a ruler as a guide. Detached cells were removed by washing twice in growth medium before adding 2 ml fresh medium. […] The chamber was gassed with 10% CO2 in humidified air and was placed onto the stage of the microscope. A regular wound edge was chosen and digital images were collected every 30 min for 8 h onto a Power Mac 7100 using Adobe Premier software. The percentage of the capture window (determined as 726 μm×544 μm) that had been filled in by the movement of cells (normalized to the original wound edge) was determined with Optilab software and plotted against time.
A confluent monolayer of cells was washed twice with PBS and the indicated concentration of DECA analogue was added to the cells in serum-free medium. Cells were treated with or without the drug for 1 h at 37° C., 5% CO2, followed by washing with PBS. […]

B16F10 cells = assay: Experimental metastasis in mice (B16F10 tail vein injection, pulmonary nodules); format: in vivo, C57BL/6 mice; conditions: 5 mg/kg IP every other day for 2 weeks, versus vehicle
Procedure: In preparation for tail vein injections, mice were tranquilized with 0.2 mg of acepromazine via i.p. injections. B16F10 cells obtained from ex-vivo culture were injected into the tail vein (10^5 cells/0.2 ml). Animals were treated IP with vehicle (0.36% sodium citrate) or 5 mg/kg of C14-DECA on the day of the tail vein injection and every other day thereafter for a 2-3 week experiment. At the end of the experimental period, the mice were sacrificed by CO2 asphyxiation. The lungs were removed and placed in 10% formalin until the metastatic nodules were counted using a dissecting microscope.

Compound: Cc1cc(N)c2ccccc2[n+]1CCCCCC[n+]1c(C)cc(N)c2ccccc21 [Compound 1a]
IC50 (Recombinant human PKCα): 54 µM

Compound: Cc1cc(N)c2ccccc2[n+]1CCCCCCCCCCCC[n+]1c(C)cc(N)c2ccccc21 [Compound 1d, 1,1′-(1,12-Dodecanediyl)bis[4-amino-2-methyl]quinolinium, diiodide]
IC50 (Recombinant human PKCα): 5 ± 2 µM

Compound: Cc1cc(N)c2ccccc2[n+]1CCCCCCCCCCCCCC[n+]1c(C)cc(N)c2ccccc21 [Compound 1e, 1,1′-(1,14-Tetradecanediyl)bis[4-amino-2-methyl]quinolinium, diiodide]
fold stronger inhibitory potency compared with C6-DECA (1a) (Recombinant human PKCα): 20 fold
fold stronger inhibitory potency than 1c (Recombinant human PKCα): 4 fold
IC50 (Recombinant human PKCα): 2.6 µM and 2.5 µM
inhibition of intracellular PKC activity without UV (intracellular PKCα; 250 nM alone, no UV): no inhibitory effect
inhibition at 0.25 µM (intracellular PKCα): 40 to 60%
inhibition of cell migration [5]: 40-60%
concentration dependence of inhibition of cell migration ([5]; range of 0-500 nM): dose-dependent
fewer pulmonary nodules (B16F10 cells): 40%

Compound: Cc1cc(N)c2ccccc2[n+]1CCCCCCCCCCCCCCCC[n+]1c(C)cc(N)c2ccccc21 [Compound 1f, 1,1′-(1,16-Hexadecanediyl)bis[4-amino-2-methyl]quinolinium, diiodide]
fold stronger inhibitory potency compared with C6-DECA (1a) (Recombinant human PKCα): 20 fold
fold stronger inhibitory potency than 1c (Recombinant human PKCα): 4 fold
IC50 (Recombinant human PKCα): 2.6 µM and 2.8 µM

Now from value to compound, other results behind:

IC50 (Recombinant human PKCα): 25 ± 9 µM
Compound: Cc1cc(N)c2ccccc2[n+]1CCCCCCCC[n+]1c(C)cc(N)c2ccccc21 [Compound 1b]

sensitivity of pp60src tyrosine protein kinase to inhibition [1]: insensitive
IC50 (Recombinant human PKCα): 11 µM and 11 to 12 µM
sensitivity of PKA to inhibition [2]: insensitive
sensitivity of calmodulin-dependent myosin light chain kinase to inhibition [4]: insensitive
inhibition at 0.25 µM (intracellular PKCα): 35%
Compound: Cc1cc(N)c2ccccc2[n+]1CCCCCCCCCC[n+]1c(C)cc(N)c2ccccc21 [Compound 1c, quinolinium, 1,1′-(1,10-decanediyl)bis(4-amino-2-methyldiiodide)]
IC50 [3]: 10 to 14 µM
inhibition of cell migration [5]: 20-30%
loss of cell motility [6]: 33%

IC50 (Recombinant human PKCα): 117 ± 8 µM
Compound: CCCCCCCCCC[n+]1c(C)cc(N)c2ccccc21 [Compound 2, N-Decyl-4-aminoquinaldinium iodide]

IC50 (Recombinant human PKCα): 3590 ± 510 µM
Compound: Cc1cc(N)c2ccccc2[n+]1C [Compound 3]
